From US8912128B2 (priority 2012, dated 2014)
“And” between values parts separate entries of the source, which are not always exact repeats. Identical values can stand only once.

Columns and labels:
[1] = biological target: cholera toxin secreted from Vibrio cholerae culture (Vibrio cholerae serotype O1, UniProt P01556)
[2] = biological target: whole cholera toxin (ctxAB5) (Vibrio cholerae serotype O1, UniProt P01556); assay type: binding
whole cholera toxin (ctxAB5), sequence (P01556 whole entry, looked up): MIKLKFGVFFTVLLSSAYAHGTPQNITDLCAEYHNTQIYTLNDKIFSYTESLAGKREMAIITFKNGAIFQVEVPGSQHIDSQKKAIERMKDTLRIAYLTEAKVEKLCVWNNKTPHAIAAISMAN

cholera toxin secreted from Vibrio cholerae culture, sequence (P01556 whole entry, looked up): as above

| Substance | fluorescence signal with Vibrio cholerae culture [1] | coefficient of determination of linear relation between fluorescence intensity and whole cholera toxin concentration [2] | limit of detection (LOD) of cholera toxin determined from the dose-response curve [2] | visual limit of detection (LOD) of cholera toxin [2] | whole cholera toxin concentration at which fluorescence intensity was saturated [2] [µg/mL] |
| --- | --- | --- | --- | --- | --- |
| GM1 pentasaccharide | high fluorescence intensity | 0.9935 | 2 ng/mL and 23 pM | 5 ng/mL and 57.5 pM | ≥ 1 |
| GM2 tetrasaccharide | high fluorescence intensity | – | – | 750 ng/mL | – |
| asialo GM1 tetrasaccharide | – | – | – | 1000 ng/mL | – |
